“Also recorded” adds a separate entry of the source.

In data set [1] the test system is HIF2alpha. The data set is described as follows: Western blot for HIF2alpha in C2BBE1 cells. It counts as cell-based. To be noted: parental C2BBE1 cells, treatment for 24 hours, relative to untreated. On the technique in general: In western blotting, separated proteins are transferred to a membrane and probed.
Data set [2] relates to MKN74 cells. The data set is described as follows: Clonogenic growth assay in MKN74 cells. It counts as cell-based. To be noted: MKN74 stable shRNA lines infected with constitutive cDNA lentivirus (GFP, WT NFS1 or NFS1^C381A), thirteen days post-doxycycline. As for the experimental part:
Clonogenic assays were performed for longer-term assessment of proliferative phenotypes. Three days following doxycycline (dox)-induction (of stable, inducible shRNA lines using 0.5 ug/mL dox) or infection (for constitutive shRNA expression), cells were trypsinized, counted (Countess Automated Cell Counter. Life Technologies), and re-plated in duplicate or triplicate in 6-well dishes at 750 to 3000 cells per well, depending on cell line. Clonogenic growth was monitored by RFP (pRSIT12 vector) or GFP (pRSI6 vector) expression at 1 week intervals using a laser scanning cytometer to measure colony area and numbers of colonies per well (IsoCyte, ImageXpress Velos). Two to three weeks after plating cells, cells were stained using crystal violet as an additional visualization of colony formation. […]
Knockdown of NFS1 inhibits clonogenic cell growth. […] Three days post-dox-induction, cells were trypsinized, counted, and plated at low density (750 cells per well of a 6-well dish) for assaying clonogenic growth. Additional cells were also collected and assessed by q-RT-PCR for NFS1 knockdown. Clonogenic growth (relative colony area shown in FIG. 5, as well as the number of objects) was monitored by red fluorescent protein (RFP) expression over two weeks scanning the plates on a laser scanning cytometer (IsoCyte, ImageXpress Velos). […]

The test system of data set [3] is aconitase. The data set is described as follows: Aconitase activity colorimetric assay in MKN74 lysates. It counts as cell-based. The conditions noted are these: MKN74, constitutive shRNA or cDNA lentivirus, seven days post-infection. How it is done:
Aconitase activity was assessed three to eleven days post-infection or dox induction in one million cells using the Aconitase Activity calorimetric Assay Kit (Biovision K716-100). Succinate dehydrogenase activity was assessed using the Succinate Dehydrogenase Activity Colorimetric Assay Kit (Biovision K660-100).
(§1) In order to confirm that such pharmacodynamic markers associated with NFS1 can be used as adjuncts or surrogate markers for directly assessing NFS1 modulation, several experiments were performed. […] The stable lines were replated at 3 days post-dox, cultured for 3 days further, and assessed for NFS1 mRNA knockdown (top right panel) or PTGS2 (Cox2) mRNA levels (bottom right panel) by q-RT-PCR. […]
Similarly, after 7 days of NFS1 knockdown, decreases in aconitase activity and ferritin protein levels, along with upregulation of TFRC protein we observed (FIG. 15). […] These cells were then either lysed in RIPA buffer, quantified, and equally loaded on a SDS-PAGE gel for analysis by Western by staining for TfRC, NFS1, FTL, or GAPDH (loading control); or trypsinized, counted, lysed, and analyzed for aconitase activity. […] These cells were then either lysed in RIPA buffer, quantified, and equally loaded on a SDS-PAGE gel for analysis by Western and staining for NFS1 and GAPDH; or trypsinized, counted, lysed and analyzed for succinate dehydrogenase activity and aconitase activity. […]

The subject of data set [4] is ferritin. Nature of the data set: Western blot for ferritin (FTH1/FTL) in MKN74. To be noted: MKN74, constitutive shRNA or cDNA lentivirus, seven days post-infection. It counts as cell-based. As for the experimental part: Cells were lysed in NP-40 lysis buffer (Boston BioProducts) supplemented with 1× Halt Protease/Phosphatase Inhibitor Cocktail (Pierce Biotechnology, Inc.), 1 mM Dithiothreitol, and 1 mM Phenylmethanesulfonylfluoride. Lysates were cleared by centrifugation and quantified using a BCA Protein Assay Kit (Pierce Biotechnology, Inc.). Lysates were resolved by SDS-PAGE (using Mini-Protean TGX gradient gels, Bio-Rad Laboratories), transferred to nitrocellulose (using the iBlot Gel, Transfer Device and Dry Blotting System, Life Technologies) and blocked in 5% nonfat milk (Blotting-Grade Blocker, Bio-Rad). […] Peroxidase-conjugated secondary antibodies (Donkey anti-rabbit IgG or Donkey anti-mouse IgG, Jackson ImmunoResearch Laboratories, Inc.) were used at 1:5000 in 5% blocking solution, and protein bands were detected using Pico SuperSignal West Pico Chemiluminescent substrate (Thermo Scientific, Pierce Biotechnology, Inc.).
as §1

For data set [5], the system named is ferroptosis. To be noted: cited from earlier work.
In data set [6] the test system is PTGS2. To be noted: cited from earlier work.

Regarding `[Cl][Co][Cl]` [cobalt chloride], in data set [1], the HIF2alpha levels result is on record as “modulation of HIF2alpha levels”.

As for “NFS1^C381A: mutant NFS1 that is catalytically dead due to a C381A mutation, dominant negative, expressed from lentiviral cDNA”, the clonogenic growth entry in data set [2] is “growth inhibitory effects comparable to that of NFS1-sh5; also recorded: strongly inhibited cell growth”. Moreover, the aconitase activity entry in data set [3] is reported as “decrease”. The “ferritin (FTH1) levels” value in data set [4] is reported as “decrease”.

Consider `COC(=O)c1ccc([C@H]2c3[nH]c4ccccc4c3C[C@H](C(=O)OC)N2C(=O)CCl)cc1` [1S3R-RSL3, (1S,3R)-RSL3], for which, in data set [5], the ferroptosis entry is reported as “induce ferroptosis”. The PTGS2 expression entry in data set [6] is given as “upregulation”.
